In patent publication US20050222275A1 (priority 2001, published 2005):
Like-named read-outs stand apart in the source and are kept apart here.

Columns and labels:
caseic amyloidosis = settings: mouse, in vivo, po; cited from earlier work
PrP^Sc [1] = settings: human, in vivo
PrP^Sc [2] = target: PrP^Sc (Mesocricetus auratus, UniProt P04273); assay type: in vivo, hamster; settings: IC-inoculated, DMSO 14-end group, brain homogenate
[3] = system: Scrapie (IC) infected Hamsters; assay type: in vivo, Syrian hamsters; settings: for Incubation period: IC scrapie-infected hamsters, 7.5% (w/v) DMSO in drinking water, median; for Percentage of infectivity (%): relative to control
amyloidotic diseases = settings: human, in vivo; cited from earlier work
[4] = in vivo, po; cited from earlier work
[5] = system: Scrapie (IP) infected Hamsters; settings: for Incubation period: IP scrapie-infected hamsters, 7.5% (w/v) DMSO in drinking water
[6] = in vivo; cited from earlier work
[7] = system: scrapie-infected neuroblastoma cells (ScN2a); settings: cited from earlier work
amyloid fibrils = settings: cited from earlier work
Aβ peptide = target: T1, Aβ peptide (Homo sapiens, UniProt P05067); settings: cited from earlier work
T1 construct: Aβ peptide intermediate with a high β-sheet content

CJD patients = settings: human, in vivo

Chain of PrP^Sc (Mesocricetus auratus, UniProt P04273) (P04273 23-231 limits assumed): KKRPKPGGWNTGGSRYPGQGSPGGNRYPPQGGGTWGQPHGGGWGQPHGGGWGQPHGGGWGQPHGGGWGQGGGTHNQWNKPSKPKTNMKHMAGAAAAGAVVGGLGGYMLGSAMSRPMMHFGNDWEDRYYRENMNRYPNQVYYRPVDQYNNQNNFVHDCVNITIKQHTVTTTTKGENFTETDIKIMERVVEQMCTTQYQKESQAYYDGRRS
T1 sequence (P05067 672-711 limits assumed): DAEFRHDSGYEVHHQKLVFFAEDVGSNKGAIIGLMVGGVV

For C[S+](C)[O-] [DMSO, dimethyl sulfoxide], the “development of the disease” value (caseic amyloidosis) is listed as “prevented the development of the disease”, the “secreted PrP^Sc in the urine” value (PrP^Sc [1]) is listed as “continuously increasing amounts” and the “PrP^Sc in sample from untreated animal relative to DMSO-treated animal (band intensity)” value (PrP^Sc [2]; 90 dpi) is listed as “about 10 times”. For the same compound, the “PrP in DMSO-treated animals at 90-110 dpi compared with untreated animals at 60 dpi” value (PrP^Sc [2]) was “equivalent”, the “PrP^Sc in DMSO-treated animals at 110 dpi compared with untreated animals at 90 dpi (final stages)” value (PrP^Sc [2]) was “equivalent amounts” and the “Incubation period” value ([3]; 0-14 dpi) was 85 days. The “Incubation period” value ([3]; 0-end dpi) was 101 days, the “Incubation period” value ([3]; 14-end dpi) was 107 days and the “Incubation period” value ([3]; 55-end dpi) was 91 days. For the same compound, the “effect on incubation time compared with control group” value ([3]; IC, 0-14 group) was “significant deleterious effect”, the “Infectivity (Log I.D 50)” value ([3]; IC, DMSO treatment 0-14 dpi) was 7.1 Log I.D 50 and the “Variance from control group [P < 0.05]” value ([3]; IC, DMSO treatment 0-14 dpi) was “+ ([+] means statistically significant difference [p < 0.05])”. For the same compound, the “Percentage of infectivity (%)” value ([3]; IC, DMSO treatment 0-14 dpi) was 1258%, the “Infectivity (Log I.D 50)” value ([3]; IC, DMSO treatment 0-end dpi) was 4.9 Log I.D 50 and the “Variance from control group [P < 0.05]” value ([3]; IC, DMSO treatment 0-end dpi) was “+ ([+] means statistically significant difference [p < 0.05])”. For the same compound, the “Percentage of infectivity (%)” value ([3]; IC, DMSO treatment 0-end dpi) was 3.16%, the “Infectivity (Log I.D 50)” value ([3]; IC, DMSO treatment 14-end dpi) was 4.5 Log I.D 50 and the “Variance from control group [P < 0.05]” value ([3]; IC, DMSO treatment 14-end dpi) was “+ ([+] means statistically significant difference [p < 0.05])”. The “Percentage of infectivity (%)” value ([3]; IC, DMSO treatment 14-end dpi) was 3.16%, the “Infectivity (Log I.D 50)” value ([3]; IC, DMSO treatment 55-end dpi) was 6.4 Log I.D 50 and the “difference from control group in incubation time” value ([3]; IC, DMSO-treated from 55 dpi-end) was “no statistically significant difference”. For the same compound, the “incubation time for the disease compared with control group” value ([3]; IC, treatment plans 0-end or 14-end) was “statistically significant increase”, the “patients showing clinical improvement” value (amyloidotic diseases) was “about 50%” and the “urine of patients after DMSO” value (amyloidotic diseases) was “contains material that can form fibrils”. The “time to peak concentration” value [4] was 4 h, the “Incubation period” value ([5]; 0 - end dpi) was 127.6 days and the “Incubation period” value ([5]; 28 - end dpi) was 126.6 days. For the same compound, the “Incubation period” value ([5]; 55 - end dpi) was 136.8 days, the “Variance from control group [P < 0.05]” value ([5]; IP, DMSO treatment 0 - end dpi) was “+ ([+] means statistically significant difference [p < 0.05])” and the “Variance from control group [P < 0.05]” value ([5]; IP, DMSO treatment 28 - end dpi) was “+ ([+] means statistically significant difference [p < 0.05])”. For the same compound, the “Variance from control group [P < 0.05]” value ([5]; IP, DMSO treatment 55 - end dpi) was “+ ([+] means statistically significant difference [p < 0.05])”, the “overall effect for the animals treated with DMSO” value ([5]; IP, all treatment plans of Table 2) was “overall beneficial effect” and the “beneficial effect on longevity” value ([5]; IP, groups 0-end and 28-end) was “marginal”. For the same compound, the longevity ([5]; IP, treated only from 55 dpi onwards) was “most remarkable longevity”, the “adverse DMSO effects” value ([5]; hamsters, DMSO in drinking water) was “weight loss” and the side effects [6] was “no serious side effects”. The “formation of PrP^Sc from newly synthesized PrP^C” value [7] was “interfered with the formation of PrP^Sc”, the “assembly of amyloid fibrils” value (amyloid fibrils) was “blocks the assembly of amyloid fibrils” and the “disassembly of preexisting fibrils” value (amyloid fibrils) was “does not interfere”. For the same compound, the “formation of Aβ peptide intermediate with a high β-sheet content” value (Aβ peptide) was “block the formation”, the “cerebellar syndrome during the treatment” value (CJD patients) was “progressed” and the “cognitive decline during the treatment” value (CJD patients) was “no further cognitive decline”. The “deterioration, medical evaluation” value (CJD patients) was “slower than expected” and the “titubation and tremor, medical evaluation” value (CJD patients) was “improvement”.
